Source: the NIST ThermoML archive (doi:10.1016/j.jct.2014.01.012)

What was measured:
[1] = refractive index (Na D-line) (dimensionless); details: 101.33 kPa, Liquid
[2] = 101.33 kPa, Liquid
[3] = refractive index (Na D-line) (dimensionless); xn = mol fraction of the nth substance listed; details: 101 kPa, Liquid, x2 = 0
[4] = xn = mol fraction of the nth substance listed; details: 101 kPa, Liquid, x2 = 0

CCCCCCn1cc[n+](C)c1.F[P-](F)(F)(F)(F)F [1-hexyl-3-methylimidazolium hexafluorophosphate]
Details	mass density, Vibrating tube method [kg/m3]	refractive index, Standard Abbe refractometry	speed of sound, Sing-around technique in a fixed-path interferometer [m/s]
[1], 293.15 K	–	1.42064	–
[1], 298.15 K	–	1.41935	–
[1], 303.15 K	–	1.41806	–
[1], 308.15 K	–	1.41676	–
[1], 313.15 K	–	1.41547	–
[1], 318.15 K	–	1.41417	–
[1], 323.15 K	–	1.41288	–
[2], 293.15 K	1291.38	–	1436.9
[2], 298.15 K	1287.34	–	1423.5
[2], 303.15 K	1283.29	–	1410.6
[2], 308.15 K	1279.4	–	1398.2
[2], 313.15 K	1275.48	–	1386
[2], 318.15 K	1271.56	–	1374.2
[2], 323.15 K	1267.63	–	1362.5

CCCCCCCC[n+]1ccn(C)c1.F[P-](F)(F)(F)(F)F [1-octyl-3-methylimidazolium hexafluorophosphate]
Details	mass density, [2] [kg/m3]	refractive index, [1]	speed of sound, [2] [m/s]
293.15 K	1222.81	1.42649	1388.2
298.15 K	1218.9	1.42512	1373.4
303.15 K	1214.96	1.42376	1359.3
308.15 K	1211.13	1.4224	1345.8
313.15 K	1207.33	1.42103	1332.7
318.15 K	1203.5	1.41967	1320.1
323.15 K	1199.67	1.41831	1307.7

CCCCOC(C)=O [butyl ethanoate]
Details	mass density, Vibrating tube method [kg/m3]	refractive index, Standard Abbe refractometry	speed of sound, Sing-around technique in a fixed-path interferometer [m/s]
[1], 293.15 K	–	1.39428	–
[1], 298.15 K	–	1.39188	–
[1], 303.15 K	–	1.38948	–
[1], 308.15 K	–	1.3871	–
[1], 313.15 K	–	1.38469	–
[1], 318.15 K	–	1.38227	–
[1], 323.15 K	–	1.37984	–
[2], 293.15 K	881.134	–	1211.3
[2], 298.15 K	876.004	–	1190.5
[2], 303.15 K	870.855	–	1169.8
[2], 308.15 K	865.685	–	1149.2
[2], 313.15 K	860.492	–	1128.8
[2], 318.15 K	855.275	–	1108.5
[2], 323.15 K	850.032	–	1088.3

CCCCOC(C)=O [butyl ethanoate] + CCCCCCCC[n+]1ccn(C)c1.F[P-](F)(F)(F)(F)F
Details	mass density, [4] [kg/m3]	refractive index, [3]	speed of sound, [4] [m/s]
293.15 K	881.134	1.39428	1211.3
298.15 K	876.004	1.39188	1190.5
303.15 K	870.855	1.38948	1169.8
308.15 K	865.685	1.3871	1149.2
313.15 K	860.492	1.38469	1128.8
318.15 K	855.275	1.38227	1108.5
323.15 K	850.032	1.37984	1088.3

CCCCOC(C)=O [butyl ethanoate] + CCCCCCn1cc[n+](C)c1.F[P-](F)(F)(F)(F)F
Details	mass density, Vibrating tube method [kg/m3]	refractive index, Standard Abbe refractometry	speed of sound, Sing-around technique in a fixed-path interferometer [m/s]
[3], 293.15 K	–	1.39428	–
[3], 298.15 K	–	1.39188	–
[3], 303.15 K	–	1.38948	–
[3], 308.15 K	–	1.3871	–
[3], 313.15 K	–	1.38469	–
[3], 318.15 K	–	1.38227	–
[3], 323.15 K	–	1.37984	–
[4], 293.15 K	881.134	–	1211.3
[4], 298.15 K	876.004	–	1190.5
[4], 303.15 K	870.855	–	1169.8
[4], 308.15 K	865.685	–	1149.2
[4], 313.15 K	860.492	–	1128.8
[4], 318.15 K	855.275	–	1108.5
[4], 323.15 K	850.032	–	1088.3

CCOC(C)=O [ethyl acetate]
Details	mass density, Vibrating tube method [kg/m3]	refractive index, Standard Abbe refractometry	speed of sound, Sing-around technique in a fixed-path interferometer [m/s]
[1], 293.15 K	–	1.37237	–
[1], 298.15 K	–	1.36982	–
[1], 303.15 K	–	1.36727	–
[1], 308.15 K	–	1.36473	–
[1], 313.15 K	–	1.36219	–
[1], 318.15 K	–	1.35968	–
[1], 323.15 K	–	1.35732	–
[2], 293.15 K	900.573	–	1162.4
[2], 298.15 K	894.473	–	1139.8
[2], 303.15 K	888.347	–	1117.2
[2], 308.15 K	882.172	–	1094.7
[2], 313.15 K	875.951	–	1072.4
[2], 318.15 K	869.681	–	1050.1
[2], 323.15 K	863.358	–	1028

CCOC(C)=O [ethyl acetate] + CCCCCCCC[n+]1ccn(C)c1.F[P-](F)(F)(F)(F)F
Details	mass density, [4] [kg/m3]	refractive index, [3]	speed of sound, [4] [m/s]
293.15 K	900.573	1.37237	1162.4
298.15 K	894.473	1.36982	1139.8
303.15 K	888.347	1.36727	1117.2
308.15 K	882.172	1.36473	1094.7
313.15 K	875.951	1.36219	1072.4
318.15 K	869.681	1.35968	1050.1
323.15 K	863.358	1.35732	1028

CCOC(C)=O [ethyl acetate] + CCCCCCn1cc[n+](C)c1.F[P-](F)(F)(F)(F)F
[3]
Details	refractive index
293.15 K	1.37237
298.15 K	1.36982
303.15 K	1.36727
308.15 K	1.36473
313.15 K	1.36219
318.15 K	1.35968
323.15 K	1.35732

[4]
Details	mass density, Vibrating tube method [kg/m3]	speed of sound, Sing-around technique in a fixed-path interferometer [m/s]
293.15 K	900.573	1162.4
298.15 K	894.473	1139.8
303.15 K	888.347	1117.2
308.15 K	882.172	1094.7
313.15 K	875.951	1072.4
318.15 K	869.681	1050.1
323.15 K	863.358	1028
